These results are taken from patent US12365696B2, “Small-molecule focal adhesion kinase (FAK) inhibitors” (DANA-FARBER CANCER INSTITUTE, INC., priority 2019, dated 2025).

SMILES strings stand for the structures.

Sequence of PTK2 (FAK) (Q05397 whole entry): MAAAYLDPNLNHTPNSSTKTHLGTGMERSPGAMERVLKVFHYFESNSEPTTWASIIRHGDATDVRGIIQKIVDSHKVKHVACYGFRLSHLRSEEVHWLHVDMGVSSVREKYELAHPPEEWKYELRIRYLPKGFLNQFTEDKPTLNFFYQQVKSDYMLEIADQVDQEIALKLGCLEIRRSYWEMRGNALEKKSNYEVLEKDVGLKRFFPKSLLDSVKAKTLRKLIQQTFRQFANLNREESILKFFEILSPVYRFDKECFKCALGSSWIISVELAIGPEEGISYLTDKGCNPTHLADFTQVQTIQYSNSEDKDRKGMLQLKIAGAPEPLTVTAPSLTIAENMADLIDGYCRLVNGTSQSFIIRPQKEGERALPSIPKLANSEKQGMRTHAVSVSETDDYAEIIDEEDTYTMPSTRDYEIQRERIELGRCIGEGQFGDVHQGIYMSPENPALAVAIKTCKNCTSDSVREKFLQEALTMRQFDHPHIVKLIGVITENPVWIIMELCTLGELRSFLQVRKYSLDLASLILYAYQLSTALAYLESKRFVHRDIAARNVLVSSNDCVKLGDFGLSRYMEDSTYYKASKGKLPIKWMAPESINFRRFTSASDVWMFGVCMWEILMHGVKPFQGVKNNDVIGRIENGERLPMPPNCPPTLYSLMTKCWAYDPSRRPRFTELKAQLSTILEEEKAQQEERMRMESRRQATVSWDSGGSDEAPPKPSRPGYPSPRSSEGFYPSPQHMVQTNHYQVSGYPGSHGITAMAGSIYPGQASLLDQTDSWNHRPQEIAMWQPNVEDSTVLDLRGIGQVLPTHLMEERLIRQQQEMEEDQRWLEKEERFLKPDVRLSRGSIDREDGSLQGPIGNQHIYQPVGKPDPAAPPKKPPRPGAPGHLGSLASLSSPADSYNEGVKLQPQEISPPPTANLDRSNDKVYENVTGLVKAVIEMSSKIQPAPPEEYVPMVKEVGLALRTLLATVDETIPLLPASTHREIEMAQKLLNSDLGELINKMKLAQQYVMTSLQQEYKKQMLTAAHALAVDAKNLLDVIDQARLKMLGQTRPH

One assay concerns the target PTK2 (FAK) (Homo sapiens (Human), UniProt Q05397). Kind of assay: Z′-LYTE kinase assay (SelectScreen Biochemical Kinase Profiling), enzymatic IC50. The settings on record: FAK IC50. The procedure: Enzymatic IC50 data was obtained through ThermoFisher Scientific SelectScreen™ Biochemical Kinase Profiling Service, using a Z′-LYTE™ kinase-specific assay, as described below.
The test compounds were screened in 1% dimethyl sulfoxide (DMSO) (final) in the well. For 10 point titrations, 3-fold serial dilutions were conducted from the starting concentration.
All peptide/kinase mixtures were diluted to a 2× working concentration in the appropriate kinase buffer (see section kinase specific assay conditions for a complete description).
All ATP solutions were diluted to a 4× working concentration in kinase buffer (50 mM 4-(2-hydroxyethyl)-1-piperazineethanesulfonic acid (HEPES) pH 7.5, 0.01% BRIJ-35, 10 mM MgCl2, 1 mM ethylene glycol-bis(β-aminoethyl ether)-N,N,N′,N′-tetraacetic acid (EGTA)). ATP Km apparent was previously determined using a Z′-LYTE assay.
The development reagent was diluted in development buffer (see section kinase-specific assay conditions—direct and cascade for a complete description).
Using a bar-coded Corning, low volume NBS, black 384-well plate (Corning Cat. #4514), 100 nL of 100× test compound in 100% DMSO was added. […] The plate was then shaken for 30 seconds and held at room temperature for a 60 minute kinase reaction incubation period. At which point 5 μL of development reagent solution was added and the plate was shaken for 30 seconds. The plate was held again at room temperature for a 60 minute development reaction incubation period and then read on a fluorescence plate reader and analyzed.
The 2×PTK2 (FAK)/Tyr 07 mixture was prepared in 50 mM HEPES pH 7.5, 0.01% BRIJ-35, 10 mM MgCl2, 1 mM EGTA. […] After the 1 hour kinase reaction incubation period, 5 μL of a 1:16 dilution of development reagent B was added.
SelectScreen Kinase Profiling Service uses XLfit from ID Business Solutions (IDBS). The dose response curve was curve fit to model number 205 (sigmoidal dose-response model).
`COc1cc(N2CCC(N3CCN(C)CC3)CC2)ccc1Nc1ncc2c(n1)N(C)c1scnc1C(=O)N2` [Compound 6, 6-((2-methoxy-4-(4-(4-methylpiperazin-1-yl)piperidin-1-yl)phenyl)amino)-4-methyl-4,9-dihydro-10H-pyrimido[5,4-b]thiazolo[5,4-e][1,4]diazepin-10-one]: the “loss in potency relative to 3” value is reported as 8 fold.
As to `COc1cc(N2CCC(N3CCN(C)CC3)CC2)ccc1Nc1ncc2c(n1)N(C)c1sc(C(F)(F)F)nc1C(=O)N2C` [Compound 177, 6-((2-methoxy-4-(4-(4-methylpiperazin-1-yl)piperidin-1-yl)phenyl)amino)-4,9-dimethyl-2-(trifluoromethyl)-4,9-dihydro-10H-pyrimido[5,4-b]thiazolo[5,4-e][1,4]diazepin-10-one], the “lower potency relative to 5” value is approximately 10 fold.

Staying with this assay, now noted: enzymatic, Z′-LYTE; read-out: FAK IC50.
A word on the IC50: it is the midpoint of a concentration-inhibition curve. With `Cc1nc2c(s1)N(C)c1nc(Nc3ccc(N4CCN(C)CC4)cc3)ncc1NC2=O` [Compound 1, 2,4-dimethyl-6-((4-(4-methylpiperazin-1-yl)phenyl)amino)-4,9-dihydro-10H-pyrimido[5,4-b]thiazolo[5,4-e][1,4]diazepin-10-one], the IC50 is 228 nM.
On to `Cc1nc2c(s1)N(C)c1nc(Nc3ccc(N4CCC(O)CC4)cc3)ncc1NC2=O` [Compound 2, 6-((4-(4-hydroxypiperidin-1-yl)phenyl)amino)-2,4-dimethyl-4,9-dihydro-10H-pyrimido[5,4-b]thiazolo[5,4-e][1,4]diazepin-10-one], for which the IC50 is 580 nM.
On the same count and under the same terms, then `COc1cc(Nc2ncc3c(n2)N(C)c2sc(C)nc2C(=O)N3)ccc1N1CCN(C)CC1` [Compound 4, 6-((3-methoxy-4-(4-methylpiperazin-1-yl)phenyl)amino)-2,4-dimethyl-4,9-dihydro-10H-pyrimido[5,4-b]thiazolo[5,4-e][1,4]diazepin-10-one], with 90.4 nM.
On the same count and under the same terms, to `COc1cc(N2CCC(N3CCN(C)CC3)CC2)ccc1Nc1ncc2c(n1)N(C)c1scnc1C(=O)N2` [Compound 6, 6-((2-methoxy-4-(4-(4-methylpiperazin-1-yl)piperidin-1-yl)phenyl)amino)-4-methyl-4,9-dihydro-10H-pyrimido[5,4-b]thiazolo[5,4-e][1,4]diazepin-10-one] belongs 510 nM.
Same read-out and setting: to `COc1cc(N2CCN(C)CC2)ccc1Nc1ncc2c(n1)N(C)c1sc(C)nc1C(=O)N2` [Compound 7, 6-((2-methoxy-4-(4-methylpiperazin-1-yl)phenyl)amino)-2,4-dimethyl-4,9-dihydro-10H-pyrimido[5,4-b]thiazolo[5,4-e][1,4]diazepin-10-one] belongs 48.7 nM; to `CCc1nc2c(s1)N(C)c1nc(Nc3ccc(N4CCC(N5CCN(C)CC5)CC4)cc3OC)ncc1NC2=O` [Compound 8, 2-ethyl-6-((2-methoxy-4-(4-(4-methylpiperazin-1-yl)piperidin-1-yl)phenyl)amino)-4-methyl-4,9-dihydro-10H-pyrimido[5,4-b]thiazolo[5,4-e][1,4]diazepin-10-one], 32.1 nM.
For the compound `CCN1c2nc(Nc3ccc(N4CCC(N5CCN(C)CC5)CC4)cc3OC)ncc2NC(=O)c2nc(C)sc21` [Compound 9, 4-ethyl-6-((2-methoxy-4-(4-(4-methylpiperazin-1-yl)piperidin-1-yl)phenyl)amino)-2-methyl-4,9-dihydro-10H-pyrimido[5,4-b]thiazolo[5,4-e][1,4]diazepin-10-one], the half-maximal inhibitory concentration (IC50) came to 45.1 nM.
The same measure, in the same setting: then `CNC(=O)c1ccc(Nc2ncc3c(n2)N(C)c2sc(C)nc2C(=O)N3)cc1` [Compound 10, 4-((2,4-dimethyl-10-oxo-9,10-dihydro-4H-pyrimido[5,4-b]thiazolo[5,4-e][1,4]diazepin-6-yl)amino)-N-methylbenzamide], with 129 nM; and `COc1cc(N2CCN(S(C)(=O)=O)CC2)ccc1Nc1ncc2c(n1)N(C)c1sc(C)nc1C(=O)N2` [Compound 11, 6-((2-methoxy-4-(4-(methylsulfonyl)piperazin-1-yl)phenyl)amino)-2,4-dimethyl-4,9-dihydro-10H-pyrimido[5,4-b]thiazolo[5,4-e][1,4]diazepin-10-one], with 17.6 nM.
Still for that read-out and setting: to `C=CC(=O)N1CCN(c2ccc(Nc3ncc4c(n3)N(C)c3sc(C)nc3C(=O)N4C)c(OC)c2)CC1` [Compound 13, 6-((4-(4-acryloylpiperazin-1-yl)-2-methoxyphenyl)amino)-2,4,9-trimethyl-4,9-dihydro-10H-pyrimido[5,4-b]thiazolo[5,4-e][1,4]diazepin-10-one] belongs 53.6 nM.
On the same count and under the same terms, to `Cc1nc2c(s1)N(C)c1nc(Nc3ccc(N4CCN(C)CC4)cc3OCCO)ncc1N(C)C2=O` [Compound 17, 6-((2-(2-hydroxyethoxy)-4-(4-methylpiperazin-1-yl)phenyl)amino)-2,4,9-trimethyl-4,9-dihydro-10H-pyrimido[5,4-b]thiazolo[5,4-e][1,4]diazepin-10-one] belongs 465 nM; to `Cc1nc2c(s1)N(C)c1nc(Nc3ccc(N4CCN(C)CC4)cn3)ncc1N(C)C2=O` [Compound 24, 2,4,9-trimethyl-6-((5-(4-methylpiperazin-1-yl)pyridin-2-yl)amino)-4,9-dihydro-10H-pyrimido[5,4-b]thiazolo[5,4-e][1,4]diazepin-10-one], 196 nM; to `Cc1nc2c(s1)N(C)c1nc(Nc3cnn(C)c3)ncc1N(C)C2=O` [Compound 26, 2,4,9-trimethyl-6-((1-methyl-1H-pyrazol-4-yl)amino)-4,9-dihydro-10H-pyrimido[5,4-b]thiazolo[5,4-e][1,4]diazepin-10-one], 666 nM.
Regarding `COc1cc(N2CCC(N3CCN(C)CC3)CC2)ccc1Nc1ncc2c(n1)N(C)c1sc(C(F)(F)F)nc1C(=O)N2C` [Compound 177, 6-((2-methoxy-4-(4-(4-methylpiperazin-1-yl)piperidin-1-yl)phenyl)amino)-4,9-dimethyl-2-(trifluoromethyl)-4,9-dihydro-10H-pyrimido[5,4-b]thiazolo[5,4-e][1,4]diazepin-10-one], the IC50 turned out to be 134 nM.
Same read-out and setting: then `CN1CCN(c2ccc(Nc3ncc4c(n3)N(C)c3sc(-c5ccccc5)nc3C(=O)N4C)cc2)CC1` [Compound 184, 4,9-dimethyl-6-((4-(4-methylpiperazin-1-yl)phenyl)amino)-2-phenyl-4,9-dihydro-10H-pyrimido[5,4-b]thiazolo[5,4-e][1,4]diazepin-10-one], with more than 10000 nM.
The same measure, in the same setting: to `COc1cc(N2CCC(N3CCN(C)CC3)CC2)ccc1Nc1ncc2c(n1)N(C)c1sc(-c3ccccc3)nc1C(=O)N2C` [Compound 186, 6-((2-methoxy-4-(4-(4-methylpiperazin-1-yl)piperidin-1-yl)phenyl)amino)-4,9-dimethyl-2-phenyl-4,9-dihydro-10H-pyrimido[5,4-b]thiazolo[5,4-e][1,4]diazepin-10-one] belongs more than 10000 nM; to `CCc1nc2c(s1)N(C)c1nc(Nc3ccc(N4CCC(N5CCN(C)CC5)CC4)cc3OC)ncc1N(C)C2=O` [Compound 193, 2-ethyl-6-((2-methoxy-4-(4-(4-methylpiperazin-1-yl)piperidin-1-yl)phenyl)amino)-4,9-dimethyl-4,9-dihydro-10H-pyrimido[5,4-b]thiazolo[5,4-e][1,4]diazepin-10-one], 31.7 nM.
The same measure, in the same setting: to `COc1cc(Nc2ncc3c(n2)N(C)c2sc(C)nc2C(=O)N3)ccc1N1CCC(N2CCN(C)CC2)CC1` [Compound 194, 6-((3-methoxy-4-(4-(4-methylpiperazin-1-yl)piperidin-1-yl)phenyl)amino)-2,4-dimethyl-4,9-dihydro-10H-pyrimido[5,4-b]thiazolo[5,4-e][1,4]diazepin-10-one] belongs 55.7 nM; to `COc1cc(N2CCN(C3CCN(C)CC3)CC2)ccc1Nc1ncc2c(n1)N(C)c1sc(C)nc1C(=O)N2C` [Compound 195, 6-((2-methoxy-4-(4-(1-methylpiperidin-4-yl)piperazin-1-yl)phenyl)amino)-2,4,9-trimethyl-4,9-dihydro-10H-pyrimido[5,4-b]thiazolo[5,4-e][1,4]diazepin-10-one], 62.9 nM.
Take `COc1cc(N2CCN(C)CC2=O)ccc1Nc1ncc2c(n1)N(C)c1sc(C)nc1C(=O)N2C` [Compound 196, 6-((2-methoxy-4-(4-methyl-2-oxopiperazin-1-yl)phenyl)amino)-2,4,9-trimethyl-4,9-dihydro-10H-pyrimido[5,4-b]thiazolo[5,4-e][1,4]diazepin-10-one]: the IC50 came to 82.4 nM.
On the same count and under the same terms, then `COc1cc(N2CCN(C(C)=O)CC2)ccc1Nc1ncc2c(n1)N(C)c1sc(C)nc1C(=O)N2C` [Compound 199, 6-((4-(4-acetylpiperazin-1-yl)-2-methoxyphenyl)amino)-2,4,9-trimethyl-4,9-dihydro-10H-pyrimido[5,4-b]thiazolo[5,4-e][1,4]diazepin-10-one], with 45.7 nM.
Turning to `COc1cc(N2CCN(CCN(C)C)CC2)ccc1Nc1ncc2c(n1)N(C)c1sc(C)nc1C(=O)N2C` [Compound 200, 6-((4-(4-(2-(dimethylamino)ethyl)piperazin-1-yl)-2-methoxyphenyl)amino)-2,4,9-trimethyl-4,9-dihydro-10H-pyrimido[5,4-b]thiazolo[5,4-e][1,4]diazepin-10-one], the IC50 amounted to 67.2 nM.
On the same count and under the same terms, to `Cc1nc2c(s1)N(C)c1nc(Nc3ccc(N4CCN(C)CC4)cc3OCC(F)(F)F)ncc1N(C)C2=O` [Compound 201, 2,4,9-trimethyl-6-((4-(4-methylpiperazin-1-yl)-2-(2,2,2-trifluoroethoxy)phenyl)amino)-4,9-dihydro-10H-pyrimido[5,4-b]thiazolo[5,4-e][1,4]diazepin-10-one] belongs 83.5 nM.

The same assay, now with this note: phenyl substituent at thiazole 2-position.
Take `CN1CCN(c2ccc(Nc3ncc4c(n3)N(C)c3sc(-c5ccccc5)nc3C(=O)N4C)cc2)CC1` [Compound 184, 4,9-dimethyl-6-((4-(4-methylpiperazin-1-yl)phenyl)amino)-2-phenyl-4,9-dihydro-10H-pyrimido[5,4-b]thiazolo[5,4-e][1,4]diazepin-10-one]: the “FAK inhibitory activity (in words)” value is listed as “abrogated activity”.
